Target: T1, Steroid 17-alpha-hydroxylase/17,20 lyase (Homo sapiens, UniProt P05093)
T1 sequence (P05093 whole entry): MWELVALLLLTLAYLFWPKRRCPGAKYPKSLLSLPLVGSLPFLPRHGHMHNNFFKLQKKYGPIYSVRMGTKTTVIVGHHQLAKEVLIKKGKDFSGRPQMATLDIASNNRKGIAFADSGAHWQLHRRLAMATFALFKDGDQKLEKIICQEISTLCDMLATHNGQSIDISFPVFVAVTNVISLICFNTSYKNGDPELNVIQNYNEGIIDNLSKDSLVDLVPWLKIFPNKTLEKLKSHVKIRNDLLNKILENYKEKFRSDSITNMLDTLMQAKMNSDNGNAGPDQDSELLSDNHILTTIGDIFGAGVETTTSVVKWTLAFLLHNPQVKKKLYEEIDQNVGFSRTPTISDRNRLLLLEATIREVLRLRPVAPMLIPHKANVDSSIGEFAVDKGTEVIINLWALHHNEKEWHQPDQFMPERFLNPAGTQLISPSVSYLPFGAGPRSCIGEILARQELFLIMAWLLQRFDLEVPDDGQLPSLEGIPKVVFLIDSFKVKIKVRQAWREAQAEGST
Experiment: Inhibition of human Steroid 17-alpha-hydroxylase/17,20 lyase

IC50: ~1 nM
Structure (SMILES): C[C@]12CC[C@H](O)CC1=CC[C@@H]1[C@@H]2CC[C@]2(C)C(c3cccnc3)=CC[C@@H]12 [ABIRATERONE]
